Earlier results as cited in US7285563B2, “Heteroaromatic urea derivatives as VR-1 receptor modulators for treating pain” (priority 2002, dated 2007).

Molecular target: VR1 (Rattus norvegicus, UniProt O35433)
Sequence (O35433 whole entry): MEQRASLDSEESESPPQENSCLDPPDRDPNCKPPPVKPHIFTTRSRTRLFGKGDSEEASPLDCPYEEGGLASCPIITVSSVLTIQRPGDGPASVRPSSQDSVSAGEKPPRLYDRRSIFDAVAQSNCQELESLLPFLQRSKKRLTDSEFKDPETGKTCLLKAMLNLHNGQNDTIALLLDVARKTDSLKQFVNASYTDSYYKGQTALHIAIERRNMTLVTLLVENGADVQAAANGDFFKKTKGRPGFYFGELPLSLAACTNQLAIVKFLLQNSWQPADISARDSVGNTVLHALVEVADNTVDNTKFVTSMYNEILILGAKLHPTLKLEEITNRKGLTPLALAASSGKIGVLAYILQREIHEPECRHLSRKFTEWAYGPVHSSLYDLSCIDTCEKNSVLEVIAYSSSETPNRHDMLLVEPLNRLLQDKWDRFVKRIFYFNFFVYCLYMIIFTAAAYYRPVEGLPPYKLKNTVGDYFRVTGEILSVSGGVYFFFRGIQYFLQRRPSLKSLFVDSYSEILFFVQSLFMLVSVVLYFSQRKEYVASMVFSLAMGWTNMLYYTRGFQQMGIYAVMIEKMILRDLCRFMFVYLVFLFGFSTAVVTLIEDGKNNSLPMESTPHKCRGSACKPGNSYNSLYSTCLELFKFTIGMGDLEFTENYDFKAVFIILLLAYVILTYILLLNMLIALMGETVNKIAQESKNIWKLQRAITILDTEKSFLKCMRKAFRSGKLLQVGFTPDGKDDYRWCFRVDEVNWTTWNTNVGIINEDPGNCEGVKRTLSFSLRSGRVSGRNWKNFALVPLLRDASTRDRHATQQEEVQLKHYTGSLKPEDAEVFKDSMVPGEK

| Structure (SMILES) | affinity for VR1 (Walpole et al., J. Med. Chem., 37:1942, 1994) | antagonist of VR1 (Wahl et al., Mol. Pharmacol., 59:9, 2001) |
| --- | --- | --- |
| Oc1cc2c(cc1O)CN(C(=S)NCCc1ccc(Cl)cc1)CCC2 [capsazepine] | micromolar affinity |  |
| C=C(C)[C@]12C[C@@H](C)[C@@]34O[C@](Cc5ccccc5)(O[C@@H]1[C@@H]3C=C(COC(=O)Cc1cc(I)c(O)c(OC)c1)C[C@]1(O)C(=O)C(C)=C[C@@H]41)O2 [Iodo-resiniferatoxin] |  | nanomolar antagonist |
